This assay addresses T1, Mucosal addressin cell adhesion molecule 1/Integrin alpha-4/beta-7 (Homo sapiens, UniProt P13612+P26010+Q13477).
T1 sequence (P13612 whole entry): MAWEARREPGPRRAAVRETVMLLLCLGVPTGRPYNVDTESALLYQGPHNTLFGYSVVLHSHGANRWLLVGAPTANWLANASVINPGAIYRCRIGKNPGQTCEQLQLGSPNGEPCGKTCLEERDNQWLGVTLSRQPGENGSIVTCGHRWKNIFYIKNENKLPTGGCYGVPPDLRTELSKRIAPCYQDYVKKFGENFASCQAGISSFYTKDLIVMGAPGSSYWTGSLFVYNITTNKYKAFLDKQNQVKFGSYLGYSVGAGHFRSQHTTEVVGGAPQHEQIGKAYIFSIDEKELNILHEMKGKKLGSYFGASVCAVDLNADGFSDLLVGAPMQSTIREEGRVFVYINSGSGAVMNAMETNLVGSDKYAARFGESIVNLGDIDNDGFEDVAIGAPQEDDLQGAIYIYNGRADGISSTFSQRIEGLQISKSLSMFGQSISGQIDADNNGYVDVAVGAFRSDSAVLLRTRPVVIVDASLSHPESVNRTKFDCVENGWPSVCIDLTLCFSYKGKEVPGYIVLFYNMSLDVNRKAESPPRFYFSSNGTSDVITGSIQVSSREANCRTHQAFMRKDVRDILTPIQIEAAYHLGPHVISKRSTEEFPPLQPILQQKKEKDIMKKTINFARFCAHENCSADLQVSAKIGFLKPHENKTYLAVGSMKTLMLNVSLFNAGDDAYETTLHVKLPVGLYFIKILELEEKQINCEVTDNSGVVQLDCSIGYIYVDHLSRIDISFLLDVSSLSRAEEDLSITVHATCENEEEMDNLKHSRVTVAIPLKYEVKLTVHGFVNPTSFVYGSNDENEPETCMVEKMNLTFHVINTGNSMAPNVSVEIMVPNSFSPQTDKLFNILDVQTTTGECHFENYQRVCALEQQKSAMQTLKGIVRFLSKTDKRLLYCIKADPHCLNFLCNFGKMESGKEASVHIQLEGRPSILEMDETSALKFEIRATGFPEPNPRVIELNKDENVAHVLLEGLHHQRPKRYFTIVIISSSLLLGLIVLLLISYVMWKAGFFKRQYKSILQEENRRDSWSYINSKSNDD
T1 sequence (P26010 whole entry): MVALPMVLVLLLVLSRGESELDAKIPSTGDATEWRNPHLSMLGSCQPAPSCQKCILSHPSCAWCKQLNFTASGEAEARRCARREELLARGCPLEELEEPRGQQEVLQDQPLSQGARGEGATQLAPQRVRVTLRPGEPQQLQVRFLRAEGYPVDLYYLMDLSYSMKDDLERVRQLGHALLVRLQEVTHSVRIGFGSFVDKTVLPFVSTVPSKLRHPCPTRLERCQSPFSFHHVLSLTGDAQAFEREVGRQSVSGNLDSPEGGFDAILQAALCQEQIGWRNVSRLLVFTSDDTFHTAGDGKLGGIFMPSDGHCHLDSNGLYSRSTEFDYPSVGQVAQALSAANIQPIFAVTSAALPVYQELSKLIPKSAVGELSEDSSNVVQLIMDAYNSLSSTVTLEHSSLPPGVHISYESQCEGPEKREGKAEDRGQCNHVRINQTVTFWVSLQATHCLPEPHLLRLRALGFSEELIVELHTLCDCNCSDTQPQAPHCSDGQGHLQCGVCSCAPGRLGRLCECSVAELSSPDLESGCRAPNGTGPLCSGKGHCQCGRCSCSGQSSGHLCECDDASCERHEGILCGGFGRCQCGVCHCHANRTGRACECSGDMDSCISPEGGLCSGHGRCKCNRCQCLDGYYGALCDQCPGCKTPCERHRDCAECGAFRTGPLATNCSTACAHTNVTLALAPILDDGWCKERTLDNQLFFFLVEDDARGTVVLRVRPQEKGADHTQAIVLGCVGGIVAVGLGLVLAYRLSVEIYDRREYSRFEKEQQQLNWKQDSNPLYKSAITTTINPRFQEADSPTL
T1 sequence (Q13477 whole entry): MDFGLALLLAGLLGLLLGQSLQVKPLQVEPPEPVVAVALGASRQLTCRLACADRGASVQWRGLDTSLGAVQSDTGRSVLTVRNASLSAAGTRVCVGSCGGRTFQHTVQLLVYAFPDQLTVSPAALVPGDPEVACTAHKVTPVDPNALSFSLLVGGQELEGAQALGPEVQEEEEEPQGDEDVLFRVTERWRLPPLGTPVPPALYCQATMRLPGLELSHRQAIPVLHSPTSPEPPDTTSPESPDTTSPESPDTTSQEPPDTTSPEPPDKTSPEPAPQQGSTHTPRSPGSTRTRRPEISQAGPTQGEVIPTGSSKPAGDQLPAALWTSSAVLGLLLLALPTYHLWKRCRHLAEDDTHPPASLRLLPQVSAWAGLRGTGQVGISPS
The assay can be described thus: BINDING INHIBITION ACTIVITY EVALUATION TEST. On the procedure: Coat the 96-well microplate (Costar) with 50 μL of recombinant human MAdCAM-1 (R&D Systems) solution per well, and incubate overnight (12-18 hours) at 4° C. Wash three times with 150 μL of TBS buffer per well. Block plate with 150 μL per well with blocking buffer for 1 h at 37° C. Wash three times with 150 μL of TBS buffer per well. Dilute the recombinant human integrin α4β7 (R&D Systems) with TBS buffer containing 0.1% bovine serum albumin (BSA), then add to the 96 well plate with 50 μL per well. Add 1 μL of test compound or DMSO, cover, incubate at room temperature for 2 h, wash three times with 150 μL of TBS buffer per well. Dilute the anti-β7 antibody (R&D Systems) with 0.1% BSA TBS buffer, then add to the 96 well plate with 50 μL per well, cover, incubate at room temperature for 1 h, wash three times with 150 μL of TBS buffer per well. Add 50 μL of streptavidin-HRP (R&D Systems) per well, incubate at room temperature for 20 min, wash three times with 150 μL of TBS buffer per well. Add 50 μL of TMB substrate solution (Sigma) per well, incubate at room temperature for 5-30 min, and add 25 μL of stop solution per well to stop the reaction. Finally, measure absorbance at 450 nm with microplate reader (SpectraMax 340PC. Molecular Devices). Repeat the test to find the binding rate […] at each concentration when the absorbance of the well without the test substance is used as 100%, and calculate the concentration IC50 that causes 50% binding inhibition.
The compound `COC(=O)[C@H](Cc1ccc(N2C(=O)C(C)(C)c3cccc(Cl)c32)cc1)NC(c1ccccc1)(c1ccccc1)c1ccccc1` [US20240150287, Example 10] gave an IC50 of 38.8 nM.
Regarding `COC(=O)[C@H](Cc1ccc(-n2c(=O)n(C)c3cccc(Cl)c32)cc1)NC(c1ccccc1)(c1ccccc1)c1ccccc1` [US20240150287, Example 22], the IC50 worked out at 1.19 nM. Compared with the last compound, the IC50 is about 33-fold lower.
As for `COC(=O)[C@H](Cc1ccc(-n2c(=O)n(C3CC3)c3cc(Cl)ccc32)cc1)NC(c1ccccc1)(c1ccccc1)c1ccccc1` [US20240150287, Example 23], the figure is 143 nM.
As for `COC(=O)[C@H](Cc1ccc(N2C(=O)C3(CC3)c3cccc(Cl)c32)cc1)NC(=O)c1c(Cl)cc(N2CCC(N3CCOCC3)CC2)cc1Cl` [US20240150287, Example 21], the figure is 23.8 nM; as for `COC(=O)[C@H](Cc1ccc(-n2c(=O)n(C)c3cc(F)cc(F)c32)cc1)NC(c1ccccc1)(c1ccccc1)c1ccccc1` [US20240150287, Example 31], 5.34 nM; as for `COC(=O)[C@H](Cc1ccc(N2C(=O)C3(CC3)c3cc(N(C)C)ccc32)cc1)NC(c1ccccc1)(c1ccccc1)c1ccccc1` [US20240150287, Example 12], 4.15 nM.

For the origin of these results see BindingDB's records for patent US20240150287 (Hangzhou Apeloa Medicine Research Institute Co., 2024).
